{"source": "paper PMC5190008", "about": "“BO-1055, a novel DNA cross-linking agent with remarkable low myelotoxicity shows potent activity in sarcoma models” (Oncotarget, 2016)", "key": {"[1]": {"assay": "In vivo toxicity testing: complete blood counts, renal and liver function tests", "conditions": "C57 healthy mice", "text": "However myelotoxicity has been a challenge, resulting in delay in treatment cycles and infectious complications. Hematopoietic toxicity was partly alleviated by the administration of G-CSF [32] and allowed dose-escalation. […] Overcoming hematopoietic and organ toxicities will allow us to administer chemotherapy at a higher dose and at a shorter interval, which can potentially result in better cure rates. […] This was also seen in the in vivo toxicity study in C57 healthy mice where hematologic toxicity was not observed at day 10 after 5 doses of BO-1055 at 30mg/kg/dose (Supplementary Table 1). […]\nSupplementary table 1. Complete blood counts, renal and […] function tests in C57 healthy mice (n=4 per group) in control and treatment groups. Treatment group received BO--1055 at 30mg/kg/dose on days […]\nControl group BO--1055 group Control group BO--1055 group baseline baseline day 10 day 10\nMean SD Mean SD Mean SD Mean SD"}, "A204 cells": {"tested_on": "A204 cells", "assay": "Cell cycle analysis (propidium iodide)", "assay_type": "cell-based, human", "conditions": "A204, prominent at 12-24h of exposure", "experimental": "(§1) Cell viability and apoptosis were determined using 7-AAD (BD Pharmingen, San Diego, CA) and Annexin V-APC (BD Pharmingen, San Diego, CA) staining according to the instructions provided by the manufacturer and as previously published. Cell cycle fractions were determined by propidium iodide nuclear staining. Briefly, cells were harvested, washed in PBS, fixed with 70% ethanol, and incubated with propidium iodide/RNase buffer (BD Biosciences, San Diego, CA) for 15 minutes at room temperature. Data was collected on BD LSR Fortessa fluorescence-activated cell analyzer using BD FACS Diva software and analyzed using FlowJo version 9.6 software (Tree Star, Inc. Ashland, OR). Cell cycle analysis was done by applying the Dean/Jett/Fox cell cycle model using FlowJo software."}, "A673 cells [2]": {"tested_on": "A673 cells", "assay": "Cell cycle analysis (propidium iodide)", "assay_type": "cell-based, human", "conditions": "A673, prominent at 12-24h of exposure", "experimental": "as §1"}, "A673 cells [3]": {"tested_on": "A673 cells", "assay": "Comet assay", "assay_type": "cell-based, human", "conditions": "A673, 3h", "experimental": "We used comet assay, which includes single cell gel electrophoresis to assess DNA breaks when exposed to radiation or DNA damaging agents. […] Olive moment (micrometers), a product of tail DNA% and the distance between the centroids of head and tail, is an accurate parameter of DNA damage. […] Gamma-H2AX (γH2AX) phosphorylation is the initial step in DNA damage response following double stranded breaks and is responsible for recruiting DNA repair proteins.\nComet assay was performed according to the protocol described earlier. […] The cells in agarose were transferred to slides coated with normal melting point agarose. The agarose-immobilized cells were lysed in alkaline solution and the agarose trapped DNA was electrophoresed. DNA was stained with ethidium bromide and image acquisition was done immediately. DNA damage quantification was performed using OpenComet v1.3, an open-source software plugin in Image J 1.47v software (NIH, USA) for automated analysis. Olive moment, which is the product of tail DNA% and the distance between the intensity-weighted centroids of head and tail was taken from the output for analysis."}, "[4]": {"tested_on": "A673, H526 and U20S cells", "assay": "Immunoblot analyses of DNA damage repair proteins", "assay_type": "cell-based, human", "conditions": "2μM, 6h and 24h", "experimental": "Protein concentrations were determined using the BCA kit (Pierce Biotechnology, Rockford, IL) according to the manufacturer's instructions. Protein lysates (20-100 μg) were electrophoretically resolved by SDS/PAGE, transferred to nitrocellulose membrane, and probed with the indicated primary antibodies: Phospho-ATM (Ser1981) (D6H9) from rabbit (1:500, 5883, Cell Signaling, Danvers, MA), Phospho-BRCA1 (Ser1524) from rabbit (1:500, 9009, Cell Signaling), DNA-PK from rabbit (1:500, 4602, Cell Signaling), Mre11 (31H4) from rabbit (1:500, 4847, Cell Signaling) and Rad50 from rabbit (1:500, 3427, Cell Signaling). Membranes were then incubated with a 1:5,000 dilution of a peroxidase conjugated corresponding secondary antibody. Equal loading of the protein samples was confirmed by parallel western blots for β-actin (1:5,000, ab822750; Abcam). Detection was performed using the ECL-Enhanced Chemiluminescence Detection System (GE Healthcare Biosciences, Pittsburgh, PA) according to the manufacturer's instructions. Blots were visualized by autoradiography."}, "[5]": {"parameters": "method as in PMID 23353940", "conditions": "rats, HPLC-PDA ref 7; cited from earlier work"}, "[6]": {"conditions": "30mg/kg/dose on days 1,3,5,8 and 10, day 10, mean, n=4"}}, "data": [{"smiles": "CN(C)CCNC(=O)c1cccc(NC(=O)Nc2ccc(N(CCCl)CCCl)cc2)c1", "note": "[BO-1055]", "values": [{"measurement": "ALT", "setting": "[1]; [6]", "value": 89.50, "unit": "U/L"}, {"measurement": "AST", "setting": "[1]; [6]", "value": 74.25, "unit": "U/L"}, {"measurement": "BASO", "setting": "[1]; [6]", "value": 0.45, "unit": "%"}, {"measurement": "BASO#", "setting": "[1]; [6]", "value": 0.02, "unit": "K/uL"}, {"measurement": "BUN", "setting": "[1]; [6]", "value": 24.50, "unit": "mg/dL"}, {"measurement": "BUN/CREA ratio", "setting": "[1]; [6]", "value": 125.40}, {"measurement": "CREA", "setting": "[1]; [6]", "value": 0.20, "unit": "mg/dL"}, {"measurement": "DBIL", "setting": "[1]; [6]", "value": 0.00, "unit": "mg/dL"}, {"measurement": "EO", "setting": "[1]; [6]", "value": 2.93, "unit": "%"}, {"measurement": "EO#", "setting": "[1]; [6]", "value": 0.13, "unit": "K/uL"}, {"measurement": "GLU", "setting": "[1]; [6]", "value": 166.00, "unit": "mg/dL"}, {"measurement": "HCT", "setting": "[1]; [6]", "value": 46.30, "unit": "%"}, {"measurement": "HGB", "setting": "[1]; [6]", "value": 13.08, "unit": "g/dL"}, {"measurement": "IBIL", "setting": "[1]; [6]", "value": 0.13, "unit": "mg/dL"}, {"measurement": "LYMPH", "setting": "[1]; [6]", "value": 51.63, "unit": "%"}, {"measurement": "LYMPH#", "setting": "[1]; [6]", "value": 2.90, "unit": "K/uL"}, {"measurement": "MCH", "setting": "[1]; [6]", "value": 14.40, "unit": "pg"}, {"measurement": "MCHC", "setting": "[1]; [6]", "value": 28.28, "unit": "g/dL"}, {"measurement": "MCV", "setting": "[1]; [6]", "value": 51.03, "unit": "fL"}, {"measurement": "MONO", "setting": "[1]; [6]", "value": 7.80, "unit": "%"}, {"measurement": "MONO#", "setting": "[1]; [6]", "value": 0.39, "unit": "K/uL"}, {"measurement": "MPV", "setting": "[1]; [6]", "value": 6.38, "unit": "fL"}, {"measurement": "NEUT", "setting": "[1]; [6]", "value": 37.20, "unit": "%"}, {"measurement": "NEUT#", "setting": "[1]; [6]", "value": 1.90, "unit": "K/uL"}, {"measurement": "PDW", "setting": "[1]; [6]", "value": 7.40, "unit": "fL"}, {"measurement": "PLT", "setting": "[1]; [6]", "value": 1108.25, "unit": "K/uL"}, {"measurement": "RBC", "setting": "[1]; [6]", "value": 9.08, "unit": "M/uL"}, {"measurement": "RDW-CV", "setting": "[1]; [6]", "value": 23.18, "unit": "%"}, {"measurement": "RDW-SD", "setting": "[1]; [6]", "value": 32.48, "unit": "fL"}, {"measurement": "RET", "setting": "[1]; [6]", "value": 4.72, "unit": "%"}, {"measurement": "RET#", "setting": "[1]; [6]", "value": 426.88, "unit": "K/uL"}, {"measurement": "TBIL", "setting": "[1]; [6]", "value": 0.23, "unit": "mg/dL"}, {"measurement": "TP", "setting": "[1]; [6]", "value": 3.77, "unit": "g/dL"}, {"measurement": "WBC#", "setting": "[1]; [6]", "value": 5.34, "unit": "K/uL"}, {"measurement": "change in hematocrit, platelet count or neutrophil count", "setting": "[1]; day 10", "value": "did not reveal a significant change"}, {"measurement": "hematologic toxicity", "setting": "[1]; day 10 after 5 doses at 30mg/kg/dose", "value": "not observed"}, {"measurement": "cell cycle effect", "setting": "A204 cells", "value": "concentration-dependent accumulation of cells in the G2/M phase"}, {"measurement": "cell cycle effect", "setting": "A673 cells [2]", "value": "concentration-dependent accumulation of cells in the G2/M phase"}, {"measurement": "olive moment relative to radiation (XRT, 8Gy)", "setting": "A673 cells [3]", "value": "comparable"}, {"measurement": "comet tail size (DNA breaks)", "setting": "A673 cells [3]; increasing concentration", "value": "increased tail size"}, {"measurement": "pATM", "setting": "[4]; A673, H526 and U20S", "value": "activation of pATM"}, {"measurement": "pBRCA1", "setting": "[4]; U20S", "value": "upregulation of pBRCA1"}, {"measurement": "Rad50", "setting": "[4]; sensitive lines (A673, H526)", "value": "Upregulation of Rad50"}, {"measurement": "elimination", "setting": "[5]", "value": "slow elimination"}, {"measurement": "tissue distribution", "setting": "[5]", "value": "rapid distribution to all organs except brain"}]}]}
